Patent US11116778B2, “Prodrugs of ALOX-15 inhibitors and methods of using the same” (EMPIRICO INC., priority 2019, dated 2021)

Assays:
[1] = molecular target: T1, human lipoxygenase (ALOX15 Active Human Recombinant Protein) (Homo sapiens, UniProt P16050); test: Recombinant human ALOX15 assay (DPPP fluorescence)
T1 sequence (P16050 1-662): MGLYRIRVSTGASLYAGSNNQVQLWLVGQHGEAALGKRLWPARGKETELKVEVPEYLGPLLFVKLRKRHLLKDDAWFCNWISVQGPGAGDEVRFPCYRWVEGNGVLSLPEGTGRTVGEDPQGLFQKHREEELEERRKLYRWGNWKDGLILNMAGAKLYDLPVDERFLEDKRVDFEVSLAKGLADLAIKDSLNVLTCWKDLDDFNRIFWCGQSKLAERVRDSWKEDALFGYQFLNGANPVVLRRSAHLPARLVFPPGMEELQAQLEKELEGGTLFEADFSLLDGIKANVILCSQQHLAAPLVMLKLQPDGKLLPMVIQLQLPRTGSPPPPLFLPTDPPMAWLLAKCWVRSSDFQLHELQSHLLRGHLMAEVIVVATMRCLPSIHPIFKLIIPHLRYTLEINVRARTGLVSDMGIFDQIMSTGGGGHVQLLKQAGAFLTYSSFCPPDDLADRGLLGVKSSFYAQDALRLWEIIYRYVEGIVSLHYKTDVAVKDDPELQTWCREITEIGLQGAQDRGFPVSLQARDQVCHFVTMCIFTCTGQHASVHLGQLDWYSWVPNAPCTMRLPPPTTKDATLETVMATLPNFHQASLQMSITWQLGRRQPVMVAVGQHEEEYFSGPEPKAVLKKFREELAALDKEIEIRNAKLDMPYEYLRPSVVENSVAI
Protocol: Within a minute of phosphatase addition, a white precipitate appeared.
This mixture was incubated for 5 min before the addition of 1.5 μL 0.2 mM arachidonic acid.

[2] = Levels of compound 3 and compound 5 in rabbit nasal lavage and serum after nasal administration of compound 5; type: in vivo; conditions: rabbits
Protocol: Six (6) female NZW rabbits were employed in this study. Rabbits were obtained from Covance (Denver Pa.). Rabbits were between approximately 10 and 12 months of age at the time of study start. At time point 0, all animals received 50 μL of solution containing rabbit IL4 (RND Systems/Biotechne) and human IL13 (PreproTech) at a concentration of 0.25 mg/mL each in 0.5×PBS containing 12.5 mg/mL BSA per nostril. This was administered intranasally via a venous catheter attached to a micropipette. The animal was positioned in a supine manner and the venous catheter inserted into the nostril. The volume was introduced into the nasal cavity and the same procedure was repeated with the other nostril.
At the 2, 4, and 6 hour time points, animals in Group 1 (n=3) received 0.2 mL of vehicle (0.9% saline) per nostril and the animals in Group 2 (n=3) received 0.2 mL of compound 5 (10 mM) in vehicle per nostril. The dosing of vehicle and compound 5 proceed as follows: The animal was positioned in a supine manner in a restraint bag and a mucosal atomization device (MAD) attached to the pre-filled tuberculin syringe was inserted into the nostril and introduced into the nasal cavity. The same procedure was repeated with the other nostril.
At the 8 hour time point, all the nostrils of all animals were lavaged with 1 mL of 0.9% saline per nostril and the resulting fluid collected. Intranasal lavages were performed as follows: The animals were held sternally in a restraint bag with the head over the edge of the table and the rear of the animal elevated higher than the head. A flexible venous catheter was inserted in the nostril until resistance was felt. The 1 mL of saline was introduced through the catheter into the nasal cavity. The nasal lavage returned from the nostril was collected via a funnel into a conical tube and the approximate volume recorded. This procedure was repeated for the other nostril. The lavage was stored at approximately −70° C. until analysis. Following (<10 minutes) the 8 hour time point lavage, blood was collected from all animals, processed to serum, and frozen at approximately −70° C. until analysis.
Nasal lavage and serum samples were analyzed for the levels of compound 3 and compound 5. Frozen tissue samples were weighed (20-120 mg) and placed into 2 mL CK14 homogenizing tubes (Bertin) and 500 μL of methanol containing 1 mM butylated hydroxy toluene (BHT) and 1 mM tris(2-carboxyethyl)phosphine (TCEP) was added. The tubes were placed in a Precellys 24 tissue homogenizer (Bertin) and run at 6000 rpm six times for 20 seconds with a 10 second pause between cycles. The tubes containing the homogenized tissue were then placed in a microfuge and centrifuged for 5′ at 14,000 rpm to pellet any insoluble material. Compound 3 was quantified using LC-MS/MS (QTrap5500, Applied Biosystems). Q1/Q3 Masses: 306.00/135.00 using a deschloro derivative of compound 3 (lacking chlorine at 4 position of pyrazole ring) as an internal standard. The Q1/Q3 Masses are 272.00/101.00 Da for the internal standard. Compound 3 was extracted using liquid/liquid extraction with methanol as a diluent. […] Compound 5 was quantified using LC-MS/MS (QTrap5500, Applied Biosystems). […] Compound 5 was detected in the lavage samples from Group 2 animals (rabbit 1, rabbit 2, rabbit 3) and ranged in average concentration from 0.016 uM-0.35 uM. […]

SMILES: O=C(Nc1ccc(F)cc1Cl)c1nn(COP(=O)(O)O)c(Cl)c1Cl [compound 5, (4,5-dichloro-3-((2-chloro-4-fluorophenyl)carbamoyl)-1H-pyrazol-1-yl)methyl dihydrogen phosphate]
- IC50 [1]: 32 nM
- inhibition of ALOX15 ([1]; in the absence of treatment with phosphatase): No inhibition was observed
- concentration at 8 h ([2]; female, NZW, rabbit, nasal lavage, other: intranasal (mucosal atomization device), 0.2 mL of 10 mM compound 5 per nostril at 2, 4, 6 hours, lavage at 8 hours, range over 3 rabbits, read-out: average concentration of compound 5 in nasal lavage (FIG. 8)): 16 to 350 nM
- level in serum samples ([2]; intranasal compound 5 10 mM, blood after the 8 hour lavage): no quantifiable
- conversion of compound 5 to compound 3 in nasal lavage (FIG. 8) ([2]; intranasal compound 5 10 mM, lavage at 8 hours): majority of compound 5 was converted to compound 3
